Reference: ChEMBL document CHEMBL1130654, “New phthalimide derivatives with potent analgesic activity: II” (1998)

Columns and labels:
Type in all cases: functional
Mus musculus [1] = experiment: Inhibition of acetic acid induced writhing in mice at dose of 3.12 mg/kg
Mus musculus [2] = experiment: Inhibition of acetic acid induced writhing in mice at dose of 6.25 mg/kg
Mus musculus [3] = experiment: Inhibition of acetic acid induced writhing in mice at dose of 1.56 mg/kg
Mus musculus [4] = experiment: Inhibition of acetic acid induced writhing in mice at dose of 25.0 mg/kg
Mus musculus [5] = experiment: Inhibition of acetic acid induced writhing in mice at dose of 12.5 mg/kg
Mus musculus [6] = experiment: Compound was tested for hyperalgesia in mice induced by formalin expressed as time of licking at late phase(up to 30 min) at dose 25 mg/kg
Mus musculus [7] = experiment: Compound was tested for hyperalgesia in mice induced by formalin expressed as time of licking at initial phase(up to 5 min)at dose 25 mg/kg
Mus musculus [8] = experiment: Inhibition of acetic acid induced writhing in mice at dose of 25 mg/kg
Mus musculus [9] = experiment: Compound was tested for hyperalgesia in mice induced by formalin expressed as time of licking at late phase(up to 30 min) at 400 mg/kg
Mus musculus [10] = experiment: Compound was tested for hyperalgesia in mice induced by formalin expressed as time of licking at initial phase(up to 5 min) at 400 mg/kg
Mus musculus [11] = experiment: Inhibition of acetic acid induced writhing in mice at dose of 200 mg/kg
Mus musculus [12] = experiment: Inhibition of acetic acid induced writhing in mice at dose of 100 mg/kg
Mus musculus [13] = experiment: Inhibition of acetic acid induced writhing in mice at dose of 50 mg/kg
Mus musculus [14] = experiment: Compound was tested for hyperalgesia in mice induced by formalin expressed as time of licking at late phase(up to 30 min) at dose 10 mg/kg
Mus musculus [15] = experiment: Compound was tested for hyperalgesia in mice induced by formalin expressed as time of licking at initial phase(up to 5 min) at dose 10 mg/kg

| Compound | ID50 (Mus musculus [1]) | inhibition in vivo at 3.12 mg/kg (Mus musculus [1]) [%] | inhibition in vivo at 6.25 mg/kg (Mus musculus [2]) [%] | inhibition in vivo at 1.56 mg/kg (Mus musculus [3]) [%] | inhibition in vivo at 12.5 mg/kg (Mus musculus [5]) [%] | further results |
| --- | --- | --- | --- | --- | --- | --- |
| O=C1c2ccccc2C(=O)N1Cc1nc(-c2ccc([N+](=O)[O-])cc2)no1 | 4.1 | 47.4 | 62.9 | 29.8 |  |  |
| COc1ccc(-c2noc(CN3C(=O)c4ccccc4C3=O)n2)cc1 |  | 20.7 | 41.9 |  | 53.3 | inhibition in vivo at 25 mg/kg (Mus musculus [4]): 62.6%; ID50 (Mus musculus [5]): 14.9 |
| Cc1ccccc1-c1noc(CN2C(=O)c3ccccc3C2=O)n1 | 3.1 | 76.5 | 80.5 | 12.1 |  |  |
| Cc1cccc(-c2noc(CN3C(=O)c4ccccc4C3=O)n2)c1 | 2.9 | 67.1 | 79.2 | 25.5 |  |  |
| O=C1c2ccccc2C(=O)N1Cc1nc(-c2ccccc2)no1 | 2.2 | 67.1 | 73.8 | 38.9 |  | Time of licking (Mus musculus [6]): 143 s; Time of licking (Mus musculus [7]): 84 s |
| O=C1c2ccccc2C(=O)N1Cc1nc(-c2ccc(Cl)cc2)no1 |  |  | 16.3 |  | 35.1 | inhibition in vivo at 25 mg/kg (Mus musculus [8]): 59.6%; ID50 (Mus musculus [5]): 20.3 |
| Cc1ccc(-c2noc(CN3C(=O)c4ccccc4C3=O)n2)cc1 |  | 16.1 | 62.4 |  | 72.5 | ID50 (Mus musculus [2]): 7.2 |
| CC(=O)Oc1ccccc1C(=O)O [ASPIRIN] |  |  |  |  |  | Time of licking (Mus musculus [9]): 0 s; Time of licking (Mus musculus [10]): 48 s; inhibition in vivo at 200 mg/kg (Mus musculus [11]): 74%; ID50 (Mus musculus [12]): 80.8; inhibition in vivo at 100 mg/kg (Mus musculus [12]): 61.7%; inhibition in vivo at 50 mg/kg (Mus musculus [13]): 38.2% |
| CN1CC[C@]23c4c5ccc(O)c4O[C@H]2[C@@H](O)C=C[C@H]3[C@H]1C5 [MORPHINE] |  |  |  |  |  | Time of licking (Mus musculus [14]): 0 s; Time of licking (Mus musculus [15]): 41 s |
